pEC50: −log10 of the molar value. Ends that are not written are not given here. Peptide text beside a SMILES is read from it.
Tests used:
[1] = molecular target: T1, CRF2R (Homo sapiens, UniProt Q13324); assay: CRF2R agonist activation (EC50 / Emax), called comparative CRF binding; format: cell-based; details: for Emax: read-out: CRF2R Emax; for pEC50: read-out: CRF2R EC50
T1 sequence (Q13324 1-411): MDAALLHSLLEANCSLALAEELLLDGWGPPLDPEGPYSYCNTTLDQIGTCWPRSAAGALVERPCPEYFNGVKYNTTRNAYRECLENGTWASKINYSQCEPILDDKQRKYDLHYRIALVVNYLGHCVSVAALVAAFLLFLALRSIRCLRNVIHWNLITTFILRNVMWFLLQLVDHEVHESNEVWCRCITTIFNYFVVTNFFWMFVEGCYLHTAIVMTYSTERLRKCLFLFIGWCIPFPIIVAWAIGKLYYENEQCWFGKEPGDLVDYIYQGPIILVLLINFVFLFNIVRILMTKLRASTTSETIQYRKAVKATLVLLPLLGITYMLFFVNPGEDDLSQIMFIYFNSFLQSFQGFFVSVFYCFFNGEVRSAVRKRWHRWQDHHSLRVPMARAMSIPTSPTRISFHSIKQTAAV
Summary of the method: (§1)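 Read-out is Gαs-driven cAMP induction, quantified directly in lysates or through CRE-reporter gene expression, after treating CRF1R- or CRF2R-expressing cells with peptide. Vehicle-treated cells serve as the comparison.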

[2] = molecular target: T2, CRF1R (Homo sapiens, UniProt P34998); assay: CRF1R agonist activation (EC50 / Emax), called comparative CRF binding; format: cell-based; details: for Emax: read-out: CRF1R Emax; for pEC50: read-out: CRF1R EC50
T2 sequence (P34998 24-415): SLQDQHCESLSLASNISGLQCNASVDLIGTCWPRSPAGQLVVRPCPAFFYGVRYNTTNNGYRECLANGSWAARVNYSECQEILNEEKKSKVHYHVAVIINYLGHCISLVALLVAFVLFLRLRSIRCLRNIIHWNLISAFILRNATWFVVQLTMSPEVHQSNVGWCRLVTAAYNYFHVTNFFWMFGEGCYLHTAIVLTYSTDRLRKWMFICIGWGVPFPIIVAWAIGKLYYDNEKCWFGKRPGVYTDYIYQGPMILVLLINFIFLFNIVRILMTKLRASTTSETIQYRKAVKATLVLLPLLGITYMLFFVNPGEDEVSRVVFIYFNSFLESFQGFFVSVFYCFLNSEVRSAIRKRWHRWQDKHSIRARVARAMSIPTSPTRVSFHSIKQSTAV
Summary of the method: as §1

Row | Compound | Emax [1] [%] | Emax [2] [%] | pEC50 [1] | pEC50 [2]
1 | CC[C@H](C)[C@H](N)C(=O)N[C@H](C(=O)N[C@@H](CC(C)C)C(=O)N[C@@H](CO)C(=O)N[C@@H](CC(C)C)C(=O)N[C@@H](CC(=O)O)C(=O)N[C@H](C(=O)N1CCC[C@H]1C(=O)N[C@H](C(=O)N[C@@H](Cc1c[nH]cn1)C(=O)N[C@@H](CC(C)C)C(=O)N[C@@H](CC(C)C)C(=O)N[C@@H](CCC(N)=O)C(=O)N[C@H](C(=O)N[C@@H](CC(C)C)C(=O)N[C@@H](CC(C)C)C(=O)N[C@@H](CCC(=O)O)C(=O)N[C@@H](CCC(N)=O)C(=O)N[C@@H](C)C(=O)N[C@@H](CCCNC(=N)N)C(=O)N[C@@H](C)C(=O)N[C@@H](CCCNC(=N)N)C(=O)N[C@@H](C)C(=O)N[C@@H](C)C(=O)N[C@@H](CCCNC(=N)N)C(=O)N[C@@H](CCC(=O)O)C(=O)N[C@@H](CCC(N)=O)C(=O)N[C@@H](C)C(=O)N[C@H](C(=O)N[C@H](C(=O)N[C@@H](CC(N)=O)C(=O)N[C@@H](C)C(=O)N[C@@H](CCCNC(=N)N)C(=O)N[C@H](C(=O)N[C@@H](CC(C)C)C(=O)N[C@@H](C)C(=O)N[C@@H](CCCNC(=N)N)C(=O)N[C@H](C(N)=O)C(C)C)[C@@H](C)CC)[C@@H](C)O)[C@@H](C)O)[C@@H](C)CC)[C@@H](C)CC)C(C)C)C(C)C [compound 371] (H-IVLSLDVPIHLLQILLEQARARAAREQATTNARILARV-NH2; N-terminus assumed) | 97 | 22 |  | 
2 | SQEPPISLDLPFQLLREVLEMTKADQLAQQAHSNRKLLDIA-NH2 [compound 91] | 7.1 | 4 |  | 
3 | CC[C@H](C)[C@H](NC(=O)[C@H](C)NC(=O)[C@H](CC(N)=O)NC(=O)[C@H](CCC(N)=O)NC(=O)[C@H](CCC(=O)O)NC(=O)[C@H](C)NC(=O)[C@H](CCCNC(=N)N)NC(=O)[C@H](CCC(=O)O)NC(=O)[C@H](CCCNC(=N)N)NC(=O)[C@H](CCC(N)=O)NC(=O)[C@H](CO)NC(=O)[C@H](CCC(N)=O)NC(=O)[C@@H](NC(=O)[C@H](CCCNC(=N)N)NC(=O)[C@H](C)NC(=O)[C@H](CC(C)C)NC(=O)[C@H](CCC(=O)O)NC(=O)[C@H](CC(C)C)NC(=O)[C@H](CC(C)C)NC(=O)[C@@H](NC(=O)[C@H](CCCNC(=N)N)NC(=O)[C@H](CC(C)C)NC(=O)[C@H](CC(C)C)NC(=O)[C@H](CC(C)C)NC(=O)[C@H](Cc1ccccc1)NC(=O)[C@@H]1CCCN1C(=O)[C@H](CC(C)C)NC(=O)[C@H](CC(=O)O)NC(=O)[C@@H](NC(=O)[C@H](CO)NC(=O)[C@H](CC(C)C)NC(=O)[C@H](CO)NC(=O)[C@@H]1CCCN1C(=O)[C@H](CC(N)=O)NC(=O)[C@@H](N)CC(=O)O)[C@@H](C)CC)[C@@H](C)O)[C@@H](C)O)C(=O)N[C@H](C(=O)N[C@@H](Cc1ccccc1)C(=O)N[C@@H](C)C(=O)N[C@@H](CO)C(=O)N[C@H](C(N)=O)C(C)C)[C@@H](C)CC [compound 180] (H-DNPSLSIDLPFLLLRTLLELARTQSQRERAEQNAIIFASV-NH2; N-terminus assumed) | 95.7 | 99.3 | 8.50 | 6.90
4 | CC[C@H](C)[C@H](NC(=O)[C@H](C)NC(=O)[C@H](CC(N)=O)NC(=O)[C@H](CCC(N)=O)NC(=O)[C@H](CCC(=O)O)NC(=O)[C@H](C)NC(=O)[C@H](CCCNC(=N)N)NC(=O)[C@H](CCC(=O)O)NC(=O)[C@H](CCCNC(=N)N)NC(=O)[C@H](CCC(N)=O)NC(=O)[C@H](CO)NC(=O)[C@H](CCC(N)=O)NC(=O)[C@@H](NC(=O)[C@H](CCCNC(=N)N)NC(=O)[C@H](C)NC(=O)[C@H](CC(C)C)NC(=O)[C@H](CCC(=O)O)NC(=O)[C@H](CC(C)C)NC(=O)[C@H](CC(C)C)NC(=O)[C@@H](NC(=O)[C@H](CCCNC(=N)N)NC(=O)[C@H](CC(C)C)NC(=O)[C@H](CC(C)C)NC(=O)[C@@H](NC(=O)[C@H](CC(C)C)NC(=O)[C@@H]1CCCN1C(=O)[C@H](CC(C)C)NC(=O)[C@H](CC(=O)O)NC(=O)[C@@H](NC(=O)[C@H](CO)NC(=O)[C@H](CC(C)C)NC(=O)[C@H](CO)NC(=O)[C@@H]1CCCN1C(=O)[C@H](CC(N)=O)NC(=O)[C@@H](N)CC(=O)O)[C@@H](C)CC)[C@@H](C)CC)[C@@H](C)O)[C@@H](C)O)C(=O)N[C@H](C(=O)N[C@@H](Cc1ccccc1)C(=O)N[C@@H](C)C(=O)N[C@@H](CO)C(=O)N[C@H](C(N)=O)C(C)C)[C@@H](C)CC [compound 175] (H-DNPSLSIDLPLILLRTLLELARTQSQRERAEQNAIIFASV-NH2; N-terminus assumed) | 92.2 | 34.8 | 8.27 | ≤ 6.00
5 | CC[C@H](C)[C@H](NC(=O)[C@H](CCCNC(=N)N)NC(=O)[C@H](C)NC(=O)[C@H](CC(N)=O)NC(=O)[C@H](CCC(N)=O)NC(=O)[C@H](CCC(=O)O)NC(=O)[C@H](C)NC(=O)[C@H](CCCNC(=N)N)NC(=O)[C@H](CCC(=O)O)NC(=O)[C@H](CCCNC(=N)N)NC(=O)[C@H](CCC(N)=O)NC(=O)[C@H](CO)NC(=O)[C@H](CCC(N)=O)NC(=O)[C@@H](NC(=O)[C@H](CCCCN)NC(=O)[C@H](CCC(=O)O)NC(=O)[C@H](CC(C)C)NC(=O)[C@H](CCC(=O)O)NC(=O)[C@H](CC(C)C)NC(=O)[C@H](CC(C)C)NC(=O)[C@@H](NC(=O)[C@H](CCCNC(=N)N)NC(=O)[C@H](CC(C)C)NC(=O)[C@H](CC(C)C)NC(=O)[C@H](Cc1ccccc1)NC(=O)[C@H](CC(C)C)NC(=O)[C@@H]1CCCN1C(=O)[C@H](CC(C)C)NC(=O)[C@H](CC(=O)O)NC(=O)[C@@H](NC(=O)[C@H](CO)NC(=O)[C@H](CC(C)C)NC(=O)[C@H](CO)NC(=O)[C@@H]1CCCN1C(=O)[C@H](CC(N)=O)NC(=O)[C@@H](N)CC(=O)O)[C@@H](C)CC)[C@@H](C)O)[C@@H](C)O)C(=O)N[C@@H](Cc1ccccc1)C(=O)N[C@@H](CC(=O)O)C(=O)N[C@@H](CCCNC(=N)N)C(=O)N[C@H](C(N)=O)C(C)C [compound 336] (H-DNPSLSIDLPLFLLRTLLELEKTQSQRERAEQNARIFDRV-NH2; N-terminus assumed) | 100 | 59.9 |  | 
6 | CC[C@H](C)[C@H](N)C(=O)N[C@H](C(=O)N[C@@H](CC(C)C)C(=O)N[C@@H](CO)C(=O)N[C@@H](CC(C)C)C(=O)N[C@@H](CC(=O)O)C(=O)N[C@H](C(=O)N1CCC[C@H]1C(=O)N[C@H](C(=O)NCC(=O)N[C@@H](CC(C)C)C(=O)N[C@@H](CC(C)C)C(=O)N[C@@H](CCC(N)=O)C(=O)N[C@@H](CCCCN)C(=O)N[C@H](C(=O)N[C@H](C(=O)N[C@@H](CCC(=O)O)C(=O)N[C@H](C(=O)N[C@@H](CCC(=O)O)C(=O)N[C@@H](CCCCN)C(=O)N[C@@H](CCC(N)=O)C(=O)N[C@@H](CCC(=O)O)C(=O)N[C@@H](CCCCN)C(=O)N[C@@H](CCC(=O)O)C(=O)N[C@@H](CCCCN)C(=O)N[C@@H](CCC(N)=O)C(=O)N[C@@H](CCC(N)=O)C(=O)N[C@@H](C)C(=O)N[C@H](C(=O)N[C@H](C(=O)N[C@@H](CC(N)=O)C(=O)N[C@@H](C)C(=O)N[C@@H](CCCNC(=N)N)C(=O)N[C@H](C(=O)N[C@@H](CC(C)C)C(=O)N[C@@H](C)C(=O)N[C@@H](CCCNC(=N)N)C(=O)N[C@H](C(N)=O)C(C)C)[C@@H](C)CC)[C@@H](C)O)[C@@H](C)O)[C@@H](C)CC)[C@@H](C)CC)C(C)C)[C@@H](C)CC)C(C)C)C(C)C [compound 300] (H-IVLSLDVPIGLLQKVIEIEKQEKEKQQATTNARILARV-NH2; N-terminus assumed) | 100 | 7.95 |  | 
7 | CC[C@H](C)[C@H](N)C(=O)N[C@H](C(=O)N[C@@H](CC(C)C)C(=O)N[C@@H](CO)C(=O)N[C@@H](CC(C)C)C(=O)N[C@@H](CC(=O)O)C(=O)N[C@H](C(=O)N1CCC[C@H]1C(=O)N[C@H](C(=O)NCC(=O)N[C@@H](CC(C)C)C(=O)N[C@@H](CC(C)C)C(=O)N[C@@H](CCC(N)=O)C(=O)N[C@H](C(=O)N[C@@H](CC(C)C)C(=O)N[C@@H](CC(C)C)C(=O)N[C@@H](CCC(=O)O)C(=O)N[C@@H](CCSC)C(=O)N[C@@H](C)C(=O)N[C@@H](CCCNC(=N)N)C(=O)N[C@@H](C)C(=O)N[C@@H](CCC(=O)O)C(=O)N[C@@H](CCC(N)=O)C(=O)N[C@@H](CC(C)C)C(=O)N[C@@H](C)C(=O)N[C@@H](CCC(N)=O)C(=O)N[C@@H](CCC(N)=O)C(=O)N[C@@H](C)C(=O)N[C@@H](Cc1c[nH]cn1)C(=O)N[C@@H](CO)C(=O)N[C@@H](CC(N)=O)C(=O)N[C@@H](CCCNC(=N)N)C(=O)N[C@@H](CCCCN)C(=O)N[C@@H](CC(C)C)C(=O)N[C@@H](CCSC)C(=O)N[C@@H](CCC(=O)O)C(=O)N[C@H](C(=O)N[C@H](C(N)=O)[C@@H](C)CC)[C@@H](C)CC)[C@@H](C)CC)[C@@H](C)CC)C(C)C)C(C)C [compound 164] (H-IVLSLDVPIGLLQILLEMARAEQLAQQAHSNRKLMEII-NH2; N-terminus assumed) | 92 | 26 |  | 
8 | NDDPPISIDLPLILLRNMIEMARIENEREQAGLNAKYLAEV-NH2 [compound 269] | 77.3 | 44.3 |  | 
9 | SQEPPISLDLPFELLREVLEMTKADQLAQQAHSNRKLLDIA-NH2 [compound 97] | 7.6 | 4.25 |  | 
10 | NDDPPISIDLPQYLLRNMIEMARIENEREQAGLNAKYLAEV-NH2 [compound 265] | 23.4 | 9.3 |  | 
